BindingDB's records for PubMed 8301582 (Neuroscience Research Centre, 1994)
pKi: −log10 of the molar value.

Each molecule was assayed against D(3) dopamine receptor (Homo sapiens, UniProt P35462).
D(3) dopamine receptor, sequence (P35462 as listed by the source): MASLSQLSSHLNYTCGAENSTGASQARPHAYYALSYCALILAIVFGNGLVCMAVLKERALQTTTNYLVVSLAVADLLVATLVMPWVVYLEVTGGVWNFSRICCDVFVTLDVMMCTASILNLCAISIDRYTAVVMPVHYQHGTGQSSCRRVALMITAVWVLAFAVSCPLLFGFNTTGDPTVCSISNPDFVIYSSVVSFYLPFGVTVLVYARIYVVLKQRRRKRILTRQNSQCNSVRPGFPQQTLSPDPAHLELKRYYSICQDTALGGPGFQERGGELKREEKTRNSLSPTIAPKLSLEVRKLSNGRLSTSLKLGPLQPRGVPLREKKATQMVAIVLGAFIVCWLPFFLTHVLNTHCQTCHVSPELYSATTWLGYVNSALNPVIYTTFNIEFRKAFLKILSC

Compared with `CCCN(CCC)C1CCc2cc(O)c(O)cc2C1` (racemic) [CAS_62421-17-4], `Cc1cc2c(cc1C)CC(N)CC2` (configuration not stated) [ADTN DIMETHYL 5,6] is 1.40 log units lower in pKi: 9.17 for the first, 7.77 for the second.

Compared with `COc1ccc2c(c1O)-c1c3c(cc4c1[C@H](C2)N(C)CC4)OCO3` [(S)-11-methoxy-7-methyl-6,7,7a,8-tetrahydro-5H-benzo[g][1,3]dioxolo[4',5':4,5]benzo[1,2,3-de]quinolin-12-ol], `CCCN1CCc2cc(F)cc3c2C1Cc1ccc(O)c(O)c1-3` (configuration not stated) [CAS_18426-20-5] is 4.40 log units higher in pKi: 5.28 for the first, 9.68 for the second.

Going from `CC(C)C[C@H]1C(=O)N2CCC[C@H]2[C@]2(O)O[C@](NC(=O)[C@@H]3C=C4c5cccc6[nH]c(Br)c(c56)C[C@H]4N(C)C3)(C(C)C)C(=O)N12` [Bromocriptine+ (GTP+)] to `NC1CCc2cc(OC(=O)c3ccccc3)c(OC(=O)c3ccccc3)cc2C1` (configuration not stated) [CAS_129816], the pKi falls from 8.68 to 6.80 (1.88 log units). The first binds more tightly here.

`CCCN(CCC)C1C=Cc2c(OC)cccc2C1C` (configuration not stated) [CAS_5311190] showed a pKi of 8.31.
